For six compounds, Ki results are on record in ChEMBL document CHEMBL2331547, “o-Benzenedisulfonimido-sulfonamides are potent inhibitors of the tumor-associated carbonic anhydrase isoforms CA IX and CA XII” (Bioorg Med Chem, 2013).

Structures are written as SMILES.

For the assay, the target named is Carbonic anhydrase 9 (Homo sapiens, UniProt Q16790). As to the kind of experiment: Inhibition of human recombinant carbonic anhydrase-9-mediated CO2 hydration preincubated for 10 mins by stopped-flow assay.
Broadly, the Ki is the dissociation constant of the complex between target and ligand, obtained from inhibition or displacement. In the case of `NS(=O)(=O)c1ccc(CCN2S(=O)(=O)c3ccccc3S2(=O)=O)cc1`, the Ki worked out at 86 nM. Turning to `NS(=O)(=O)c1ccc(CN2S(=O)(=O)c3ccccc3S2(=O)=O)cc1`, the Ki was found to be 49.8 nM.

`NS(=O)(=O)c1ccc(N2S(=O)(=O)c3ccccc3S2(=O)=O)c(Cl)c1`: the Ki stood at 17.1 nM. The same measure for `NS(=O)(=O)c1ccc(N2S(=O)(=O)c3ccccc3S2(=O)=O)cc1`: 82.5 nM; for `NS(=O)(=O)c1cccc(N2S(=O)(=O)c3ccccc3S2(=O)=O)c1`: 32.2 nM; for `NS(=O)(=O)c1ccccc1N1S(=O)(=O)c2ccccc2S1(=O)=O`: 66.9 nM.
